From patent US20210386367A1, “DEVICES AND SYSTEMS FOR GASTROINTESTINAL MICROBIOME DETECTION AND MANIPULATION” (Progenity, Inc., priority 2018, published 2021)
≈ marks a conversion by molar mass, not a printed value. Read-outs that look alike come from different tables or passages of the source.

Legend:
Assay type in all cases: cell-based
[1] = tested on: Streptococcus spp. clinical isolates; assay: MIC distribution against clinical isolates; conditions: 54 Streptococcus spp. isolates
In short: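 Clinical Streptococcus isolates (S. pyogenes, S. agalactiae and Viridans group streptococci) were tested for antimicrobial susceptibility by broth or agar dilution. Each isolate was inoculated into media holding serial dilutions of the antimicrobial agent and incubated, e.g., overnight at 37° C. Growth was then examined, and the MIC was the lowest concentration preventing growth.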

[2] = tested on: Streptococcus pyogenes clinical isolates; assay: MIC distribution against clinical isolates; conditions: 19 S. pyogenes isolates
In short: (§1)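 MIC is the lowest agent concentration preventing growth, determined by broth or agar dilution with serial compound dilutions and incubation under appropriate conditions (e.g., overnight at 37° C.). MIC90 is the concentration inhibiting ≥90% of isolates in the test population.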

[3] = tested on: Viridans group Streptococci clinical isolates; assay: MIC distribution against clinical isolates; conditions: 15 Viridans group Streptococci isolates
In short: as §1

Enterococcus faecalis = assay: Broth microdilution MIC, 50 clinical isolates
In short: (§2)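 CLSI broth microdilution in cation-adjusted Mueller Hinton broth, with 3% lysed horse blood added for streptococci. Two-fold dilutions, inoculum ~5×10^5 CFU/mL, 35° C for 16-24 hr in ambient air (streptococci with CO2 planchets). MIC = lowest concentration inhibiting visible growth.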

Staphylococcus aureus = assay: Broth microdilution MIC, 50 clinical isolates (28 MRSA)
In short: as §2

Streptococcus pyogenes = assay: Broth microdilution MIC, 19 clinical isolates
In short: as §2

Streptococcus agalactiae = assay: Broth microdilution MIC, 20 clinical isolates; conditions: 20 Streptococcus agalactiae clinical isolates; for Mode: modal MIC
In short: as §2

[4] = tested on: Viridans group Streptococcus; assay: Broth microdilution MIC, 15 clinical isolates; conditions: 15 Viridans group Streptococci clinical isolates; for Mode: modal MIC
In short: as §2

## piperacillin/tazobactam [piperacillin-tazobactam]
[1]; MIC 0.015 μg/mL
  Cumulative percentage of isolates inhibited at MIC: 1.9%
  Number of test isolates at MIC: 1
[1]; MIC 0.03 μg/mL
  Cumulative percentage of isolates inhibited at MIC: 14.8%
  Number of test isolates at MIC: 7
[1]; MIC 0.06 μg/mL
  Cumulative percentage of isolates inhibited at MIC: 44.4%
  Number of test isolates at MIC: 16
[1]; MIC 1 μg/mL
  Cumulative percentage of isolates inhibited at MIC: 90.7%
  Number of test isolates at MIC: 1
[1]; MIC 2 μg/mL
  Cumulative percentage of isolates inhibited at MIC: 94.4%
  Number of test isolates at MIC: 2
[1]; MIC 4 μg/mL
  Cumulative percentage of isolates inhibited at MIC: 100.0%
  Number of test isolates at MIC: 3
[2]; MIC 0.03 μg/mL
  Cumulative percentage of isolates inhibited at MIC: 21.1%
  Number of test isolates at MIC: 4
[2]; MIC 0.06 μg/mL
  Cumulative percentage of isolates inhibited at MIC: 89.5%
  Number of test isolates at MIC: 13
[2]; MIC […]
  Number of test isolates at MIC: 1
[3]; MIC 0.015 μg/mL
  Cumulative percentage of isolates inhibited at MIC: 6.7%
  Number of test isolates at MIC: 1
[3]; MIC 0.03 μg/mL
  Cumulative percentage of isolates inhibited at MIC: 26.7%
  Number of test isolates at MIC: 3
[3]; MIC 0.06 μg/mL
  Cumulative percentage of isolates inhibited at MIC: 46.7%
  Number of test isolates at MIC: 3
[3]; MIC 1 μg/mL
  Cumulative percentage of isolates inhibited at MIC: 66.7%
  Number of test isolates at MIC: 1
[3]; MIC 2 μg/mL
  Cumulative percentage of isolates inhibited at MIC: 80.0%
  Number of test isolates at MIC: 2
[3]; MIC 4 μg/mL
  Cumulative percentage of isolates inhibited at MIC: 100.0%
  Number of test isolates at MIC: 3
[3]; MIC […]
  Number of test isolates at MIC: 1
Enterococcus faecalis
  MIC50: 4 µg/mL
  MIC90: 8 µg/mL
  Mode: 4 µg/mL
Staphylococcus aureus
  MIC50: 8 µg/mL
  MIC90: 64 µg/mL
  Mode: 64 µg/mL
Staphylococcus aureus; FDA breakpoints
  % R: 48% ^1
  % S: 52% ^1
Streptococcus pyogenes
  MIC50: 0.06 µg/mL
  MIC90: 0.12 µg/mL
  MIC range: 0.03 to 0.25 µg/mL
  Mode: 0.06 µg/mL
Streptococcus agalactiae
  MIC50: 0.25 µg/mL
  MIC90: 0.25 µg/mL
  MIC range: 0.12 to 0.25 µg/mL
  Mode: 0.25 µg/mL
[4]
  MIC50: 0.12 µg/mL
  MIC90: 4 µg/mL
  MIC range: 0.015 to 4 µg/mL
  Mode: 0.06 µg/mL

## COc1c(N2C[C@@H]3CCCN[C@@H]3C2)c(F)cc2c(=O)c(C(=O)O)cn(C3CC3)c12 [moxifloxacin]
[1]; MIC 0.06 μg/mL
  Cumulative percentage of isolates inhibited at MIC: 24.1%
  Number of test isolates at MIC: 13
[1]; MIC 0.5 μg/mL
  Cumulative percentage of isolates inhibited at MIC: 90.7%
  Number of test isolates at MIC: 1
[1]; MIC 2 μg/mL
  Cumulative percentage of isolates inhibited at MIC: 94.4%
  Number of test isolates at MIC: 2
[1]; MIC 4 μg/mL
  Cumulative percentage of isolates inhibited at MIC: 98.1%
  Number of test isolates at MIC: 2
[1]; MIC 8 μg/mL
  Cumulative percentage of isolates inhibited at MIC: 100.0%
  Number of test isolates at MIC: 1
[2]; MIC 0.06 μg/mL
  Cumulative percentage of isolates inhibited at MIC: 31.6%
  Number of test isolates at MIC: 6
[2]; MIC 0.5 μg/mL
  Cumulative percentage of isolates inhibited at MIC: 100.0%
  Number of test isolates at MIC: 1
[3]; MIC 0.06 μg/mL
  Cumulative percentage of isolates inhibited at MIC: 26.7%
  Number of test isolates at MIC: 4
[3]; MIC 2 μg/mL
  Cumulative percentage of isolates inhibited at MIC: 80.0%
  Number of test isolates at MIC: 2
[3]; MIC 4 μg/mL
  Cumulative percentage of isolates inhibited at MIC: 93.3%
  Number of test isolates at MIC: 2
[3]; MIC 8 μg/mL
  Cumulative percentage of isolates inhibited at MIC: 100.0%
  Number of test isolates at MIC: 1
Enterococcus faecalis
  Mode: >8 µg/mL
Enterococcus faecalis; Enterococcus faecalis, read-out: MIC50
  MIC50: 0.5 µg/mL (≈ 1.25 µM)
Enterococcus faecalis; Enterococcus faecalis, read-out: MIC90
  MIC90: > 8 µg/mL
Staphylococcus aureus
  Mode: 1 µg/mL
Staphylococcus aureus; Staphylococcus aureus, read-out: MIC50
  MIC50: 0.12 µg/mL (≈ 0.299 µM)
Staphylococcus aureus; Staphylococcus aureus, read-out: MIC90
  MIC90: 2 µg/mL (≈ 4.98 µM)
Streptococcus pyogenes
  MIC range: 0.06 to 0.5 µg/mL
  Mode: 0.12 µg/mL
Streptococcus pyogenes; Streptococcus pyogenes, read-out: MIC50
  MIC50: 0.12 µg/mL (≈ 0.299 µM)
Streptococcus pyogenes; Streptococcus pyogenes, read-out: MIC90
  MIC90: 0.25 µg/mL (≈ 0.623 µM)
Streptococcus agalactiae
  MIC range: 0.06 to 0.25 µg/mL
  Mode: 0.12 µg/mL
Streptococcus agalactiae; read-out: MIC50
  MIC50: 0.12 µg/mL (≈ 0.299 µM)
Streptococcus agalactiae; read-out: MIC90
  MIC90: 0.12 µg/mL (≈ 0.299 µM)
[4]
  MIC range: 0.06 to 8 µg/mL
  Mode: 0.06 µg/mL
[4]; Streptococcus, read-out: MIC50
  MIC50: 0.12 µg/mL (≈ 0.299 µM)
[4]; Streptococcus, read-out: MIC90
  MIC90: 4 µg/mL (≈ 9.96 µM)
